Assay results published in patent US20100331363A1, “TREATMENT OF MITOCHONDRIAL DISORDERS USING A FARNESYL TRANSFERASE INHIBITOR” (Link Medicine Corporation, priority 2008, published 2010).

Tested on: INS1 cells
Test: Glucolipotoxicity-induced mitochondrial fragmentation in INS1 cells
Format: cell-based
Conditions: 1 nM
Procedure: To determine the effect of LNK-754 on glucolipotoxicity-induced mitochondrial fragmentation, LNK-754 at 1 nM and 100 nM concentrations was cultured with INS1 cells in media containing palmitate according to methods and procedures described in Molina et. al. 2009. […] Treatment with 1 nM LNK-754 results in about a 70% increase in normal mitochondrial morphology in comparison with no treatment with LNK-754. […] Treatment with 1 nM LNK-754 results in about a 55% decrease in fragmentation induced by palmitate. Low dose LNK-754 protected INS1 cells from glucolipotoxicity-induced mitochondrial fragmentation as evident from the striking mitochondrial imaging results.

For `C#Cc1cccc(-c2cc(=O)n(C)c3ccc([C@](O)(c4ccc(Cl)cc4)c4cncn4C)cc23)c1` [LNK-754, (R)-6-[(4-chlorophenyl)-hydroxyl-(1-methyl-1-H-imidazol-5-yl)-methyl]-4-(3-ethynylphenyl)-1-methyl-2-(1H)-quinonlinone], the “decrease in fragmentation induced by palmitate” value was about 55% and the “increase in normal mitochondrial morphology” value (palmitate, vs no treatment) was about 70%.
